Our source for the IC50 values is BindingDB's records for patent US20250282736 (ST. JUDE CHILDREN''S RESEARCH HOSPITAL, 2025).

In the data set the target is T1, PXR (Nuclear receptor subfamily 1 group I member 2) (Homo sapiens, UniProt O75469).
T1 sequence (O75469 whole entry): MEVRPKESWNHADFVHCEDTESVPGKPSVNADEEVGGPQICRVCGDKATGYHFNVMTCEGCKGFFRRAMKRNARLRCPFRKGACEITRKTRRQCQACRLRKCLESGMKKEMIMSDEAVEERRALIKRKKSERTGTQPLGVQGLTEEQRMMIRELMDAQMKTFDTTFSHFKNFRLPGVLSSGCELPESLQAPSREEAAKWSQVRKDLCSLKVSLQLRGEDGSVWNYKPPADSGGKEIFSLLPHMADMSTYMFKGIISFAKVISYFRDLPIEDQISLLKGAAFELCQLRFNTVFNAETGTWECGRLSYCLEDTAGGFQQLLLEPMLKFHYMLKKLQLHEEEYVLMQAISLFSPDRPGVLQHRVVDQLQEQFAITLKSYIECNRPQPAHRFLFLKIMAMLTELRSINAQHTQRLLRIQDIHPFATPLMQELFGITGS
The data set is described as follows: In Vitro Assay. From the text:
PXR can be determined in an in vitro assay system. Such in vitro assay systems include assay such as the assays as described herein.

In turn, `CCCC(CC)Oc1ccc(C(C)(C)C)cc1NC(=O)c1nnn(-c2cc(OC)ccc2OC)c1C` (configuration not stated) [US20250282736, Compound J1] came in with an IC50 of 3.8 nM.
Take `COc1ccc(Cl)cc1-n1nnc(C(=O)Nc2cc(C(C)(C)C)ccc2OCC(=O)O)c1C` [US20250282736, Compound B25]: the IC50 was 360 nM.
